The results in this text go back to US9551722B2, “Amyloid binding agents” (The Regents of the University of California, priority 2009, dated 2017).

Each structure is given as a SMILES string. Where “and” joins values, the source holds several entries; their conditions need not be identical. Equal entries are not always repeated.

Assay [1] addresses T1, pre-aggregated Aβ(1-42) peptide (Homo sapiens, UniProt P05067).
T1 construct: preaggregated Aβ(1-42) peptides
The assay is described as follows: Apparent binding constant (Kd) by double reciprocal fluorescence plot. Particulars: compound 10, 5, 2.5, 1.25 μM; 5.0 μM pre-aggregated Aβ(1-42); PBS pH 7.4. Here is the method:
We also measured the apparent binding constants (Kd) of the compounds (in concentrations of 10, 5, 2.5 and 1.25 μM) to 5.0 μM pre-aggregated Aβ(1-42) peptide. The Kd can be measured from the double reciprocal of the fluorescent maximum and the concentration of the compound. See H. LeVine III, Protein Sci. 1993, 2:404-410. […] [22,] See LeVine, Id.; Lockhart, L. Ye, D. B. Judd, A. T. Merritt, P. N. Lowe, J. L. Morgenstern, G. Z. Hong, A. D. Gee, J. Brown, J. Biol. Chem. 2005, 280:7677-7684; M. Biancalana, K. Makabe, A. Koide, S. Koide, J. Mol. Biol. 2008, 383:205-213; M. Biancalana, K. Makabe, A. Koide, S. Koide, J. Mol. Biol. 2009, 385:1052-1063. The Kd corresponds to the −1/(x-intercept) of the linear regression.
Pre-aggregated Aβ(1-42) (5 μM final concentration) was mixed with various concentrations of compounds described herein (10, 5, 2.5, 1.25 μM) in PBS buffer (pH 7.4) and their fluorescence was measured. The negative inverse of the x-intercept of the linear regression, that was drawn between the double reciprocal of the fluorescence intensity maximum and concentration of the compound, represents the compound binding constant (Kd) to Aβ(1-42).
In order to quantify the dissociation constants (Kd's) for the binding of fluorescent compounds with aggregated β-amyloid peptides, we used the method described by LeVine (see H. LeVine III, Protein Sci. 1993, 2, 404-410). This method is similar to the method described by Benesi-Hildebran (see C. Yang, L. Liu, T. W. Mu, Q. X. Guo, Anal. Sci. 2000, 16, 537-539). Here, the fluorescence of the compound was measured with and without the addition of the aggregated peptides in solution. The relative fluorescence enhancement of the compound upon binding to aggregated β-amyloid peptides was determined by taking the difference between F (fluorescence after the addition of aggregated peptides) and F (fluorescence before the addition of aggregated peptides).
In order to estimate the binding constant (Kd) for the compound-Aβ complexes from the fluorescence studies, we made the following assumptions: • 1. All compounds are completely in solution and free of any significant competing binding process such as self-aggregation. • 2. The concentration of unbound compounds can be approximated as close to the total concentration of the compounds. • 3. The binding sites in the aggregated Aβ peptides are not completely occupied at the concentration of Aβ-binding compounds used for the fluorescence studies (i.e., the experiments are carried out under non-saturated binding conditions).
FIG. 2 and FIG. 6 provide double reciprocal plots of the measured fluorescence versus total concentration of compound [GO]. Assuming that [G] can be approximated as close to [GO] (assumption 2), we can obtain estimates for the Kd's of the compound-Aβ complexes from the x-intercept of the linear fits of the data for each compound.

The target of assay [2] is T2, interaction of the aggregated Aβ peptide with a monoclonal anti-Aβ IgG (Homo sapiens, UniProt P05067).
T2 construct: Aggregated Aβ peptides were generated from synthetic Aβ(1-42) peptides
T2 sequence (P05067 672-713 limits assumed): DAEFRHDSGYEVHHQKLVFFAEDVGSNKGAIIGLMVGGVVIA
The assay is described as follows: Semi-quantitative ELISA: inhibition of IgG-Aβ fibril interactions. Type of assay: binding. Particulars: anti-Aβ IgG clone 6E10; for IC50: 50% inhibition of IgG-Aβ interactions; for Maximum % inhibition (ELISA): maximal percentage of IgG inhibited from binding to the fibrils. The method, then:
The association of the synthesized compounds with aggregated Aβ peptides was tested using a semi-quantitative ELISA based assay developed by Yang and co-workers. See P. Inbar, J. Yang, Bioorg. Med. Chem. Lett. 2006, 16:1076-1079; P. Inbar, C. Q. Li, S. A. Takayama, M. R. Bautista, J. Yang, ChemBioChem 2006, 7:1563-1566; P. Inbar, M. R. Bautista, S. A. Takayama, J. Yang, Anal. Chem. 2008, 80:3502-3506. The assay is based on screening for molecules that inhibit the interaction of the aggregated Aβ peptide with a monoclonal anti-Aβ IgG raised against residues 1-17 of Aβ. Table 4 provides the concentrations of the compounds corresponding to 50% inhibition (IC50) of the IgG-Aβ interactions as well as the maximal percentage of the IgG's inhibited from binding to the fibrils. […] The maximum inhibition, a measure of the extent of surface coating of the aggregated peptide by the compounds, was determined to be between 40-98% (Table 4). See P. Inbar, J. Yang, Bioorg. Med. Chem. Lett. 2006, 16:1076-1079; P. Inbar, C. Q. Li, S. A. Takayama, M. R. Bautista, J. Yang, ChemBioChem 2006, 7:1563-1566; P. Inbar, M. R. Bautista, S. A. Takayama, J. Yang, Anal. Chem. 2008, 80:3502-3506. […] Specifically, while the maximum inhibition is between 81-98% for the phenyl compounds, it decreases to 58% for the longer naphthalene compound 11 and to 40% for the more conjugated stilbene 19.
Aggregated Aβ peptides were generated from synthetic Aβ(1-42) peptides by dissolving 30 μg of peptide in 90 μL of nanopure water (pH 5-6) and incubating at 37° C. for ≧72 h without agitation. Each well of a 96-well plate (well volume 0.4 mL; clear, flat bottom polypropylene) was coated for 3 h at 25° C. with 50 μL of 1.3 μM solution of Aβ peptides in phosphate-buffered saline (PBS, 10 mM NaH2PO4/Na2HPO4, 138 mM NaCl, 2.7 mM KCl, pH 7.4). After removal of the excess sample, 50 μL solutions of compounds in PBS buffer (various concentrations were obtained by diluting a stock solution with PBS buffer) were incubated in the wells for 12 h. […] The excess solutions were then removed and all wells were blocked for 30 min by adding 300 μL of a 1% (w/v) solution of bovine serum albumin in PBS buffer (BSA/PBS). On occasion, an additional blocking step was performed prior to incubation with solutions of small molecules. The blocking solution was discarded and the wells were washed once with 300 μL of PBS buffer. Wells were incubated for 1 h with 50 μL of a 1.1 nM solution (in 1% BSA/PBS, dilution 1:6000) of anti-Aβ IgG (clone 6E10, monoclonal, mouse), followed by removal of the solution. The wells were washed twice with 300 μL of PBS buffer and incubated for 60 min with 50 μL of the secondary IgG (anti-mouse IgG H+L, polyclonal, rabbit) conjugated with alkaline phosphatase (6.8 nM in 1% BSA/PBS, dilution 1:1000). The solution was discarded, and the wells were washed twice with 300 μL PBS buffer. Bound secondary IgGs were detected by the addition of 50 μL of a p-nitrophenyl phosphate solution (2.7 mM, in 100 mM diethanol amine/0.5 mM magnesium chloride, pH 9.8). Absorbance intensities were determined at 405 nm using a UV-vis spectroscopic plate reader (Sprectramax 190, Molecular Devices, Sunnyvale, Calif.). Each run was performed five times and averaged. Error bars represent standard deviations. Graphs were plotted and fitted with the sigmoid curve fitting.

T1 sequence (P05067 672-713 limits assumed): as above

For the compound `CN(C)c1ccc(/C=C(\C#N)C(=O)OCC(O)CO)cc1` (stereo not drawn) [Cmpd 14, (E)-2,3-dihydroxypropyl 2-cyano-3-(4-(dimethylamino)phenyl) acrylate], in assay [1], the Kd came to 3.3 µM. Also, in assay [2], 82.1 µM corresponded to half-maximal inhibition (IC50) and the “Maximum % inhibition (ELISA)” value worked out at 79%.

As for `COCCOCCOCCOC(=O)/C(C#N)=C/c1ccc(N(C)C)cc1OC` [Cmpd 8b, (E)-2-(2-(2-methoxyethoxyl)ethoxy)ethyl 2-cyano-3-(4-(dimethylamino)-2-methoxyphenyl)acrylate], in assay [1], the Kd amounted to 5.3 µM. Also, in assay [2], the IC50 was 1.17 µM and 1.2 µM; the “Maximum % inhibition (ELISA)” value is 92%.

For the compound `COCCOCCOCCOC(=O)/C(C#N)=C/c1ccc(N(C)C)cc1` [Cmpd 8a, (E)-2-(2-(2-methoxyethoxyl)ethoxy)ethyl 2-cyano-3-(4-(dimethylamino)phenyl)acrylate], the Kd in assay [1] was 2.6 µM. Moreover, in assay [2], the IC50 turned out to be 129 µM and the “Maximum % inhibition (ELISA)” value is listed as 81%.

On to `CCN(CC)c1ccc(C=C(C#N)C(=O)OCCOCCOCCOC)cc1` (stereo in doubt) [Cmpd 8c, (Z)-2-(2-(2-methoxyethoxyl)ethoxy)ethyl 2-cyano-3-(4-(diethylamino)phenyl)acrylate], for which, in assay [1], the Kd was 4.8 µM. Also, in assay [2], half-maximal inhibition (IC50) required 11.4 µM and the “Maximum % inhibition (ELISA)” value is on record as 98%.

Regarding `COCCOCCOCCOC(=O)/C(C#N)=C/c1ccc2cc(N3CCCCC3)ccc2c1` [Cmpd 11, (E)-2-(2-(2-methoxyethoxyl)ethoxy)ethyl-2-cyano-3-(6-(piperidin-1-yl)naphthalen-2-yl)acrylate], the Kd in assay [1] was 2.5 µM. Further, in assay [2], the IC50 is 74.3 µM and the “Maximum % inhibition (ELISA)” value is 58%.

On to `CCCCN(CCCC)c1ccc(C=C(C#N)C(=O)OCCOCCOCCOC)cc1` (stereo in doubt) [Cmpd 8d, (Z)-2-(2-(2-methoxyethoxyl)ethoxy)ethyl-2-cyano-3-(4-(dibutylamino)phenyl)acrylate], for which the Kd in assay [1] worked out at 4.4 µM. Moreover, in assay [2], inhibition was half-maximal at 90.6 µM (IC50) and the “Maximum % inhibition (ELISA)” value was 91%.
